From the supplement of paper PMC11616607

How the values were obtained:
Assay in all cases: drug sensitivity score (DSS) from 5-point dose-response viability curve (DSS (area-under-curve based score)); higher = more sensitive (stronger growth inhibition or killing); extreme values may be limits of the assay
Settings in all cases: exposure time: 72 h; concentration range: 5 concentrations over 10,000-fold range
OVCAR4 = tested on: OVCAR4
Summary of the method: (§1)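 Drug sensitivity scores were calculated in Breeze software for each cell line and drug pair; higher scores indicate more sensitivity. A score of zero indicates no response. The underlying assay used 384-well plates: drugs were placed by an Echo 550 acoustic dispenser at five concentrations spanning a 10,000-fold range, 1,500 ovarian cancer or normal ovarian cells were added per well, and cells were kept 3 days at 37°C, 5% CO2. Viability was then measured with CellTiter-Glo luminescence on a PHERAstar FS.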

OVCAR5 = tested on: OVCAR5
Summary of the method: as §1

Kuramochi = tested on: Kuramochi
Summary of the method: as §1

CAOV3 = tested on: CAOV3
Summary of the method: as §1

COV318 = tested on: COV318
Summary of the method: as §1

JHOS2 = tested on: JHOS2
Summary of the method: as §1

HOSE1C = tested on: HOSE1C
Summary of the method: as §1

OV90 = tested on: OV90
Summary of the method: as §1

HOSE2C = tested on: HOSE2C
Summary of the method: as §1

Ovsaho = tested on: Ovsaho
Summary of the method: as §1

COV362 = tested on: COV362
Summary of the method: as §1

OVCAR8 = tested on: OVCAR8
Summary of the method: as §1

| Compound | drug sensitivity score (OVCAR4) | drug sensitivity score (OVCAR5) | drug sensitivity score (Kuramochi) | drug sensitivity score (CAOV3) | drug sensitivity score (COV318) | drug sensitivity score (JHOS2) | drug sensitivity score (HOSE1C) | drug sensitivity score (OV90) | drug sensitivity score (HOSE2C) | drug sensitivity score (Ovsaho) | drug sensitivity score (COV362) | drug sensitivity score (OVCAR8) |
| --- | --- | --- | --- | --- | --- | --- | --- | --- | --- | --- | --- | --- |
| CN1CCc2c(c3ccccc3n2Cc2ccc(C(=O)NO)cc2)C1 [Tubastatin A] | 1.7 | 5.2 | 1.5 | 0.7 | 0.9 | 1.8 | 4.2 | 3.4 | 2.7 | 1 | 1.7 | 4.6 |
| CC[C@@H]1C(=O)OC[C@@H]1Cc1cncn1C [Pilocarpine] | 0 | 0 | 0 | 0 | 0 | 0.5 | 0 | 0 | 0 | 0 | 0 | 0 |
| NCCNc1ccc(NCCN)c2c1C(=O)c1ccncc1C2=O [Pixantrone] | 0 | 0 | 0.1 | 0 | 0 | 0 | 0 | 0.1 | 0 | 0.3 | 0 | 0.4 |
| Cc1ccc(NC(=O)c2ccc(CN3CC[C@H](N(C)C)C3)c(C(F)(F)F)c2)cc1Nc1nccc(-c2cncnc2)n1 [Bafetinib] | 0 | 0 | 0 | 0 | 0 | 0 | 0 | 3 | 0 | 0 | 0 | 0 |
| CC(C)n1cnc2c(NCCc3ccc(O)cc3)nc(-c3csc4ccccc34)nc21 [StemRegenin 1] | 1.1 | 4.2 | 1.3 | 0 | 1.1 | 1 | 3.8 | 1.2 | 2.2 | 1.8 | 2 | 1.6 |
| Cc1cccc(-c2nn3c(c2-c2ccnc4ccc(C(N)=O)cc24)CCC3)n1 [Galunisertib] | 0 | 0 | 0 | 0 | 0.3 | 0 | 0 | 0 | 0 | 0 | 1.8 | 0 |
| CC1(C)CCC(CN2CCN(c3ccc(C(=O)NS(=O)(=O)c4ccc(NCC5CCOCC5)c([N+](=O)[O-])c4)c(Oc4cnc5[nH]ccc5c4)c3)CC2)=C(c2ccc(Cl)cc2)C1 [Venetoclax] | 0 | 0 | 0 | 0 | 0 | 2.8 | 0 | 0 | 0 | 0 | 0 | 0 |
| COc1ccc(S(=O)(=O)Nc2cccnc2Nc2ccc(O)cc2)cc1 [ABT-751] | 5 | 10.3 | 7.4 | 14.9 | 7.2 | 7.1 | 15.8 | 9.4 | 10.7 | 7 | 4.3 | 11.5 |
| CC(=O)c1cc2c(o1)C(=O)c1ccccc1C2=O [Napabucasin] | 19 | 21.3 | 16.7 | 18.2 | 16.2 | 18.6 | 28.9 | 17.9 | 24.2 | 17.3 | 12.4 | 16.3 |
| COCCOc1cnc2ccn([C@H](C)c3nnc4c(F)cc(-c5cnn(C)c5)cn34)c(=O)c2c1 [AMG-337] | 0 | 0 | 0 | 0 | 0 | 0 | 0 | 0 | 0 | 0 | 0 | 0 |
| CNC(=O)c1cccc(-c2ccc3c(N4CCOC[C@@H]4C)nc(N4CCOC[C@@H]4C)nc3n2)c1 [Vistusertib] | 11.5 | 13.3 | 11.5 | 10.2 | 10 | 7.7 | 14.5 | 15.1 | 10.3 | 15.4 | 2.8 | 10.2 |
| NS(=O)(=O)NCCNc1nonc1/C(=N/O)Nc1ccc(F)c(Br)c1 [Epacadostat] | 0 | 0.3 | 0 | 0 | 1 | 0.9 | 0 | 0.4 | 0 | 0.1 | 0 | 0 |
| CCn1c(-c2nonc2N)nc2cnc(Oc3cccc(NC(=O)c4ccc(OCCN5CCOCC5)cc4)c3)cc21 | 0.6 | 2.2 | 2.1 | 1.6 | 5.7 | 2.8 | 12.7 | 5.1 | 6 | 0.9 | 0.2 | 4.4 |
| CNC(=O)[C@@H](NC(=O)[C@H](CC(C)C)[C@H](O)C(=O)NO)C(C)(C)C [Marimastat] | 0.1 | 1.6 | 0 | 1.3 | 0 | 0 | 0 | 0.1 | 0 | 0 | 0 | 0.1 |
| CCOC(=O)C1=CCCC[C@H]1S(=O)(=O)Nc1ccc(F)cc1Cl [Resatorvid] | 0 | 0 | 0 | 0 | 0 | 0 | 0 | 0 | 0 | 0 | 0 | 0 |
